Numbered stars: 1 amine (or outer) side, 2 acyl side, 3 side chain; on linkers, the order of the positions; unused ones are H or OH. Square brackets hold non-standard residues; d marks the D form. Peptide text beside a SMILES is read from it. X1 = [N-]=[N+]=NCCNCC[C@H](N[*:1])C(=O)[*:2]; Lys(N3) = [N-]=[N+]=NCCCC[C@H](N)C(=O)O
How the values were obtained:
[1] = intrinsic hydrophilicity/hydrophobicity coefficient ΔtR(Gly) by RP-HPLC (procedure of Hodges et al.); type: physicochemical; settings: RP-HPLC retention of guest-residue peptide versus Gly standard; positive = more hydrophobic than Gly
Method: We then determined the intrinsic hydrophilicity/hydrophobicity coefficients (ΔtR(Gly)) for residue 1, ^N3K, and Lys according to the procedure of Hodges et al. to gain comparative insight into the hydrophilic nature of the new residue. […] Amino acids with side-chains more hydrophobic than Gly have positive ΔtR(Gly) values, and vice-versa.
RP-HPLC was performed with a solvent system of 0.1% TFA in Milli-Q H2O (Standard A) and 0.1% TFA in 9:1 CH3CN/H2O (Standard B). Analytical RPHPLC was performed on an Agilent 1200 series HPLC, using a Vydac 218TP C18 column (250×4.6 mm, 5 μm), with a linear gradient from 0 to 100% B at a rate of 1% B per min, at a flow rate of 0.25 mL/min and a column temperature of 40° C.

[2] = SPAAC ligation kinetics with BCN, second order conditions, NMR; settings: methanol at 25° C.
Method: The reaction kinetics of amino acid 1 in SPAAC with two strained cyclooctynes, DBCO and BCN, were determined in comparison with ^N3K. First, peptides 12 and 13, which contain residue 1 and ^N3K respectively, were independently ligated to PEG-functionalized DBCO. Rates were determined under pseudo-first order conditions by UV-vis spectroscopy at 308 nm (FIGS. 3A-3C, 7, 8). The calculated second order rate constant for peptide 12 was 0.34 M^−1 s^−1 in HBS buffer, pH 7.4 at 25° C., which is similar to previously reported rate constants for other azides. The ligation rate of peptide 12 is slightly slower than peptide 13 ([…]), which may be due to hydrophobic interactions between the ^N3K side-chain and the aromatic DBCO, facilitating ligation. […] We then determined the reaction rate of Boc-protected amino acid 2 itself with BCN in methanol at 25° C. […]
Solutions of BCN and amino acids were prepared in MeOD. The reaction between BCN and amino acids was measured under second order conditions using NMR. […] The reaction was monitored by ^1H NMR. Concentration of product ([P]) at each time point was determined by the integration of red proton in the product using blue proton as internal standard. The value of k2t was calculated by equation 1. With Prism software, second order rate constants, k2, was calculated by linear regression between k2t and time. […]

[3] = solubility in water by UV-vis spectroscopy before and after centrifugation; type: physicochemical; settings: 20 mg/mL was the highest concentration tested
Method: Residue 1's ability to enhance solubility was tested via the amphiphilic peptide 16, which contains 7 copies of 1 along with 9 hydrophobic Val residues. Here, we directly measured solubility via UV-vis spectroscopy of aqueous preparations of peptides before and after centrifugation (FIG. 2B). Peptide 16 (FIG. 5) was fully soluble in water at 20 mg/mL, the highest concentration tested, as was its Lys-containing control peptide 18. […] Further, peptides 16 and 18 had nearly identical RP-HPLC chromatograms (FIG. 6) indicating similar hydrophilic character. In contrast, the ^N3K-containing peptide 17 was completely insoluble in water at only 1 mg/mL, showing extensive light scattering before centrifugation and no scattering after, due to sedimentation of aggregates.

[4] = solubility of peptide powder in solvents; type: physicochemical
Text: Peptide 17: Insoluble powder in water and acetonitrile. It is soluble in Trifluoroethanol.

intrinsic hydrophilicity/hydrophobicity coefficient ΔtR(Gly) [1] | solubility [3] | SMILES | other results
−0.04 | – | NCCCC[C@H](N)C(=O)O [Lys] | –
– | – | CC(C)(C)OC(=O)N(CCN=[N+]=[N-])CC[C@H](NC(=O)OCC1c2ccccc2-c2ccccc21)C(=O)O [compound 2, (S)-2-((((9H-fluoren-9-yl)methoxy)carbonyl)amino)-4-((2-azidoethyl)(tertbutoxycarbonyl)-amino)butanoic acid] | second order rate constant k2 with BCN [2]: 0.28 M⁻¹ s⁻¹
– | < 1 mg/mL | CC(C)[C@H](N)C(=O)N[C@@H](CCCCN=[N+]=[N-])C(=O)N[C@H](C(=O)N[C@@H](CCCCN=[N+]=[N-])C(=O)N[C@H](C(=O)N[C@@H](CCCCN=[N+]=[N-])C(=O)N[C@H](C(=O)N[C@@H](CCCCN=[N+]=[N-])C(=O)N[C@H](C(=O)N1CCC[C@@H]1C(=O)N1CCC[C@H]1C(=O)N[C@H](C(=O)N[C@@H](CCCCN=[N+]=[N-])C(=O)N[C@H](C(=O)N[C@@H](CCC(=O)O)C(=O)N[C@H](C(=O)N[C@@H](CCCCN=[N+]=[N-])C(=O)N[C@H](C(=O)N[C@@H](CCCCN=[N+]=[N-])C(=O)N[C@H](C(N)=O)C(C)C)C(C)C)C(C)C)C(C)C)[C@@H](C)O)C(C)C)C(C)C)C(C)C)C(C)C [peptide 17] (H-V[Lys(N3)]V[Lys(N3)]V[Lys(N3)]V[Lys(N3)]V[dP]PT[Lys(N3)]VEV[Lys(N3)]V[Lys(N3)]V-NH2) | solubility in Trifluoroethanol [4]: soluble; solubility in water and acetonitrile [4]: Insoluble
– | ≥ 20 mg/mL | CC(C)[C@H](N)C(=O)N[C@@H](CCCCN)C(=O)N[C@H](C(=O)N[C@@H](CCCCN)C(=O)N[C@H](C(=O)N[C@@H](CCCCN)C(=O)N[C@H](C(=O)N[C@@H](CCCCN)C(=O)N[C@H](C(=O)N1CCC[C@@H]1C(=O)N1CCC[C@H]1C(=O)N[C@H](C(=O)N[C@@H](CCCCN)C(=O)N[C@H](C(=O)N[C@@H](CCC(=O)O)C(=O)N[C@H](C(=O)N[C@@H](CCCCN)C(=O)N[C@H](C(=O)N[C@@H](CCCCN)C(=O)N[C@H](C(N)=O)C(C)C)C(C)C)C(C)C)C(C)C)[C@@H](C)O)C(C)C)C(C)C)C(C)C)C(C)C [peptide 18] (H-VKVKVKVKV[dP]PTKVEVKVKV-NH2; N-terminus assumed) | –
– | ≥ 20 mg/mL | CC(C)[C@H](N)C(=O)N[C@@H](CCNCCN=[N+]=[N-])C(=O)N[C@H](C(=O)N[C@@H](CCNCCN=[N+]=[N-])C(=O)N[C@H](C(=O)N[C@@H](CCNCCN=[N+]=[N-])C(=O)N[C@H](C(=O)N[C@@H](CCNCCN=[N+]=[N-])C(=O)N[C@H](C(=O)N1CCC[C@@H]1C(=O)N1CCC[C@H]1C(=O)N[C@H](C(=O)N[C@@H](CCNCCN=[N+]=[N-])C(=O)N[C@H](C(=O)N[C@@H](CCC(=O)O)C(=O)N[C@H](C(=O)N[C@@H](CCNCCN=[N+]=[N-])C(=O)N[C@H](C(=O)N[C@@H](CCNCCN=[N+]=[N-])C(=O)N[C@H](C(N)=O)C(C)C)C(C)C)C(C)C)C(C)C)[C@@H](C)O)C(C)C)C(C)C)C(C)C)C(C)C [peptide 16, VZVZVZVZV^DPPTZVEVZVZV-NH2] (H-V[X1]V[X1]V[X1]V[X1]V[dP]PT[X1]VEV[X1]V[X1]V-NH2) | –
1.4 | – | [N-]=[N+]=NCCNCC[C@H](N)C(=O)O [compound 1] | –
